Assay results from US20230391745A1, “SMALL MOLECULE DEGRADERS OF THE BROMODOMAIN AND PHD FINGER TRANSCRIPTION FACTOR” (Regents of the University of Minnesota, priority 2022, published 2023).
Like-named read-outs stand apart in the source and are kept apart here.

Key:
BRD9 bromodomain = biological target: T1, BRD9 bromodomain (Homo sapiens, UniProt Q9H8M2); experiment: AlphaScreen assay with BRD9 bromodomain and biotinylated histone H4 KAc5,8,12,16 peptide; format: binding
T1 construct: His; purchased Reaction Biology RD-11-214
T1 sequence (Q9H8M2 136-240 limits assumed): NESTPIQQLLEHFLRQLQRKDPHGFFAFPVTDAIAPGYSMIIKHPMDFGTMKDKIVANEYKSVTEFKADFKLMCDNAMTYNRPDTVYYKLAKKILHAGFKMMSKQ

CECR2 bromodomain = biological target: T2, CECR2 bromodomain (Homo sapiens, UniProt Q9BXF3); experiment: AlphaScreen assay with CECR2 bromodomain and biotinylated histone H4 KAc5,8,12,16 peptide; format: binding
T2 construct: His; purchased Reaction Biology RD-11-210

BPTF bromodomain = biological target: T3, BPTF bromodomain (Homo sapiens, UniProt Q12830); experiment: AlphaScreen assay with BPTF bromodomain and biotinylated histone H4 KAc5,8,12,16 peptide; format: binding; conditions: average of two technical replicates with N = 3 unless otherwise indicated, read-out: BPTF BD IC50
T3 construct: His9-tagged BPTF bromodomain was expressed and purified as described previously; His9; made in house
Experimental: General procedure for AlphaScreen assay. His9-tagged BPTF bromodomain was expressed and purified as described previously. […] The AlphaScreen assay procedures were adapted from the manufacturers protocol (PerkinElmer, USA). […] The biotinylated Histone H4 KAc5,8,12,16 peptide was purchased from EpiCypher (Cat. #12-0034), with the sequence:
Ac-SGRGK(Ac)GGK(Ac)GLGK(Ac)GGAK(Ac)RHRKVLR-Peg(Biot).
All reagents were diluted in the assay buffer (50 mM HEPES-Na^+ (ChemImpex), 100 mM NaCl (SigmaAldrich), 0.05% CHAPS (RPI), 0.1% BSA (SigmaAldrich), pH 7.4).
3-fold serial dilutions were prepared with varying concentrations of the compounds and a fixed protein concentration, keeping the final DMSO concentration at 0.25%. […] 5 μL of the biotinylated peptide solution was then added to the wells. 10 μL of pre-mixed nickel chelate acceptor beads and streptavidin donor beads were added to each well under low light conditions (<100 lux), to a final concentration of 20 μg/mL. The plate was sealed and incubated for 30 minutes in the dark. It was then read in AlphaScreen mode (excitation time=100 ms, integration time=300 ms, output: counts/s) using a Tecan Spark plate reader. Each compound was run in two technical replicates and the data was normalized against 0 μM inhibitor signal to obtain the % normalized AlphaScreen signal. IC50 values were calculated in GraphPad Prism 9 using a sigmoidal 4-parameter logistic (4PL) curve fit.
To validate our chosen exit vectors, an AlphaScreen assay was used to measure binding affinity of our degraders with the BPTF bromodomain.

[1] = biological target: T4, GST-BRD9 and His-tagged CRBN-DDB1 (Homo sapiens, UniProt Q96SW2+Q9H8M2); experiment: In vitro AlphaScreen ternary complex assay, BRD9; format: binding; conditions: GST-BRD9, His-CRBN-DDB1, varying degrader concentrations
T4 construct: GST-tagged bromodomains (BPTF, BRD9, CECR2 and PCAF) and His-tagged CRBN; purchased Reactive Biology Corp RD-11-187
Experimental: General procedure for in vitro ternary complex assay. His-tagged CRBN-DDB1 protein was prepared following the procedure reported by Matyskiela et al. GST-BPTF was purchased from BPS Biosciences (cat #31134), while GST-BRD9, GST-CECR2, and GST-PCAF were purchased from Reactive Biology Corp (cat #RD-11-187, cat #RD-11-194, and cat #RD-11-259 respectively). All reagents were diluted in assay buffer comprising 25 mM HEPES, pH 7.4, 100 mM NaCl, 0.1% BSA, and 0.05% tween20. An ECHO 650 (Labcyte Inc.) acoustic dispenser was used to generate a 10-point dilution curve from DMSO stocks of the degraders directly into a 384-well OptiPlate (PerkinElmer, Cat. #6007290) giving a final DMSO concentration of 0.3%. […]
Briefly, to a 384-well OptiPlate containing 5× degrader in triplicate was added 5 μL of a 5× solution of His-CRBN-DDB1 and GST-tagged bromodomain and then incubated at rt for 1 h. […] The plate was sealed and mixed on a MixMate (eppendorf) for 1 h at rt and then luminescence detection was collected on an Envision plate reader (PerkinElmer).
In vitro ternary complex formation via AlphaScreen. […] The AlphaScreen signal was measured at varying degrader concentrations and the amplitude of the maximum point on the curve was used as an indicator of ternary complex stability.

[2] = biological target: T5, Nluc-BPTF-BD fusion construct (Homo sapiens, UniProt Q12830+Q96SW2); experiment: In-cell NanoBRET CRBN ternary complex assay with Nluc-BPTF-BD; format: cell-based; conditions: for BRET ratio, fold increase over DMSO (in-cell ternary complex formation): 1 μM degrader, C-terminal Nluc-BPTF-BD fusion, HEK293T cells; for Ternary complex formation with C-terminal Nluc/BPTF-BD fusion construct / Ternary complex formation with N-terminal Nluc/BPTF-BD fusion construct: 1 μM for 2 h, HEK293T cells pre-treated with MG-132
T5 construct: form ternary complexes with nanoluciferase-fused BPTF bromodomain and full-length BRD9 constructs; expressed in transfected cells; host or cells: HEK293T
Experimental: In-cell NanoBRET assay. NanoBRET experiments were carried out using the NanoBRET CRBN Ternary Complex Starter Kit (Cat #ND2720) according to the manufacturer's protocol (Promega NanoBRET™ CRBN Ternary Complex Assay TM615).^38 All assays were run in 384-well format. HEK293T cells were transfected to a 1:100 donor:acceptor (Nluc:Halotag vectors) ratio for both BPTF-BD and BRD9-FL vectors (see supporting information for the design of plasmids). Cells were re-plated, treated with the HaloTag 618 Ligand and treated with compounds as described in the manufacturer's procedure.
Cell culture. HEK293T cells were grown in a humidified 5% CO2 environment at 37° C. Cells were cultured in DMEM media (high-glucose, Gibco Cat. #11965-092) supplemented with 10% fetal-bovine serum (Cellgro Cat. #QB-110-001-101), Penicillin-Streptomycin (50 U/mL penicillin, 50 μg/mL streptomycin, Cellgro Cat. #15140-122). The cells were passaged to a 1:20 dilution by decanting suspended cells and dissociating adherent cells from cell culture flasks in 0.25% trypsin/EDTA (Gibco, Cat. #25200056) after 1 min incubation.
In-cell ternary complex formation and degradation of BPTF-BD via NanoBRET. After establishing in vitro ternary complex formation, a NanoBRET ternary complex assay was optimized to rank-order degraders in cells (FIG. 4A). This assay also serves as an indirect indicator of cellular permeability, which is often a major challenge for heterobifunctional degraders. Both N- and C-terminal fusions of Nanoluciferase (Nluc) and BPTF-BD with 11-amino acid linkers were designed. The vectors were transfected into HEK293T cells and compounds 4 and 5 were dosed at 1 μM for 2 h in cells pre-treated with the proteosome inhibitor MG-132. […] The C-terminal Nluc-BPTF-BD fusion construct was therefore used for subsequent experiments. Degraders were tested for ternary complex formation at 1 μM (FIG. 4B).

[3] = biological target: T6, GST-PCAF and His-tagged CRBN-DDB1 (Homo sapiens, UniProt Q92831+Q96SW2); experiment: In vitro AlphaScreen ternary complex assay, PCAF; format: binding; conditions: His-CRBN-DDB1, varying degrader concentrations
T6 construct: GST-tagged bromodomains (BPTF, BRD9, CECR2 and PCAF) and His-tagged CRBN; purchased Reactive Biology Corp RD-11-259
Experimental: (§1) General procedure for in vitro ternary complex assay. His-tagged CRBN-DDB1 protein was prepared following the procedure reported by Matyskiela et al. GST-BPTF was purchased from BPS Biosciences (cat #31134), while GST-BRD9, GST-CECR2, and GST-PCAF were purchased from Reactive Biology Corp (cat #RD-11-187, cat #RD-11-194, and cat #RD-11-259 respectively). All reagents were diluted in assay buffer comprising 25 mM HEPES, pH 7.4, 100 mM NaCl, 0.1% BSA, and 0.05% tween20. An ECHO 650 (Labcyte Inc.) acoustic dispenser was used to generate a 10-point dilution curve from DMSO stocks of the degraders directly into a 384-well OptiPlate (PerkinElmer, Cat. #6007290) giving a final DMSO concentration of 0.3%. AlphaScreen glutathione coated donor and nickel chelate acceptor beads were purchased from PerkinElmer (Cat. #6765300 and 6760141 respectively).
(§2) Briefly, to a 384-well OptiPlate containing 5× degrader in triplicate was added 5 μL of a 5× solution of His-CRBN-DDB1 and GST-tagged bromodomain and then incubated at rt for 1 h. After incubation, 10 μL nickel chelate acceptor (20 μL/mL final concentration) and 10 μL glutathione donor beads (20 μL/mL final concentration) were added. The plate was sealed and mixed on a MixMate (eppendorf) for 1 h at rt and then luminescence detection was collected on an Envision plate reader (PerkinElmer).
(§3) In vitro ternary complex formation via AlphaScreen. The stability of the ternary complex is critical for degradation by heterobifunctional molecules. A ternary complex formation in vitro using an AlphaScreen-based assay (FIG. 3A) was therefore studied. In this experiment, anti-GST donor beads and nickel acceptor beads were paired with GST-tagged bromodomains (BPTF, BRD9, CECR2 and PCAF) and His-tagged CRBN. The AlphaScreen signal was measured at varying degrader concentrations and the amplitude of the maximum point on the curve was used as an indicator of ternary complex stability.

[4] = biological target: T7, GST-CECR2 and His-tagged CRBN-DDB1 (Homo sapiens, UniProt Q96SW2+Q9BXF3); experiment: In vitro AlphaScreen ternary complex assay, CECR2; format: binding; conditions: GST-CECR2, His-CRBN-DDB1, varying degrader concentrations
T7 construct: GST-tagged bromodomains (BPTF, BRD9, CECR2 and PCAF) and His-tagged CRBN; purchased Reactive Biology Corp RD-11-194
Experimental: as §1, §2, §3

[5] = biological target: T8, Nluc-BRD9-FL fusion construct (Homo sapiens, UniProt Q96SW2+Q9H8M2); experiment: Degradation of Nluc-BRD9-FL construct by total donor luminescence; conditions: similar conditions as BPTF study (1 μM, 6 h), HEK293T cells
Source text: (§4) In-cell ternary complex formation and degradation of full-length BRD9 via NanoBRET. […] Degradation of the Nluc-BRD9-FL construct was monitored under similar conditions as our BPTF study.

[6] = biological target: T8, Nluc-BRD9-FL fusion construct; experiment: In-cell NanoBRET CRBN ternary complex assay with full-length BRD9; conditions: HEK293T cells
Source text: as §4

[7] = AlphaScreen, average of two technical replicates with N = 2 unless otherwise indicated, read-out: BRD9 BD IC50
[8] = AlphaScreen, average of two technical replicates with N = 2 unless otherwise indicated, read-out: CECR2 BD IC50

T6 sequence (Q92831 723-827 limits assumed): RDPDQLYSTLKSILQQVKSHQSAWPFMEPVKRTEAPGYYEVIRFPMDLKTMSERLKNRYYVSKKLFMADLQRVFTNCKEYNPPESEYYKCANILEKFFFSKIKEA
T6 sequence (Q96SW2 40-442 limits assumed): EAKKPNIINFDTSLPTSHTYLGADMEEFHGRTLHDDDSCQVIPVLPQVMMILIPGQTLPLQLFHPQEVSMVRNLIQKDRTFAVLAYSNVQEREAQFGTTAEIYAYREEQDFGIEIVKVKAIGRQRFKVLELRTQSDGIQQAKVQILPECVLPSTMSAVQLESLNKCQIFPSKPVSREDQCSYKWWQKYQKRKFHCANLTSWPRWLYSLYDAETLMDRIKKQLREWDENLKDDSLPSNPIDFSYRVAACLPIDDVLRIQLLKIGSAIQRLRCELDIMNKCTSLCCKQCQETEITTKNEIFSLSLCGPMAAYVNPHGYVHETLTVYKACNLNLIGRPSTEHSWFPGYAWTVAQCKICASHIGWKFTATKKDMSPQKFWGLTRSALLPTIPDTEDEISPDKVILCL
T6 sequence (Q16531 whole entry partner): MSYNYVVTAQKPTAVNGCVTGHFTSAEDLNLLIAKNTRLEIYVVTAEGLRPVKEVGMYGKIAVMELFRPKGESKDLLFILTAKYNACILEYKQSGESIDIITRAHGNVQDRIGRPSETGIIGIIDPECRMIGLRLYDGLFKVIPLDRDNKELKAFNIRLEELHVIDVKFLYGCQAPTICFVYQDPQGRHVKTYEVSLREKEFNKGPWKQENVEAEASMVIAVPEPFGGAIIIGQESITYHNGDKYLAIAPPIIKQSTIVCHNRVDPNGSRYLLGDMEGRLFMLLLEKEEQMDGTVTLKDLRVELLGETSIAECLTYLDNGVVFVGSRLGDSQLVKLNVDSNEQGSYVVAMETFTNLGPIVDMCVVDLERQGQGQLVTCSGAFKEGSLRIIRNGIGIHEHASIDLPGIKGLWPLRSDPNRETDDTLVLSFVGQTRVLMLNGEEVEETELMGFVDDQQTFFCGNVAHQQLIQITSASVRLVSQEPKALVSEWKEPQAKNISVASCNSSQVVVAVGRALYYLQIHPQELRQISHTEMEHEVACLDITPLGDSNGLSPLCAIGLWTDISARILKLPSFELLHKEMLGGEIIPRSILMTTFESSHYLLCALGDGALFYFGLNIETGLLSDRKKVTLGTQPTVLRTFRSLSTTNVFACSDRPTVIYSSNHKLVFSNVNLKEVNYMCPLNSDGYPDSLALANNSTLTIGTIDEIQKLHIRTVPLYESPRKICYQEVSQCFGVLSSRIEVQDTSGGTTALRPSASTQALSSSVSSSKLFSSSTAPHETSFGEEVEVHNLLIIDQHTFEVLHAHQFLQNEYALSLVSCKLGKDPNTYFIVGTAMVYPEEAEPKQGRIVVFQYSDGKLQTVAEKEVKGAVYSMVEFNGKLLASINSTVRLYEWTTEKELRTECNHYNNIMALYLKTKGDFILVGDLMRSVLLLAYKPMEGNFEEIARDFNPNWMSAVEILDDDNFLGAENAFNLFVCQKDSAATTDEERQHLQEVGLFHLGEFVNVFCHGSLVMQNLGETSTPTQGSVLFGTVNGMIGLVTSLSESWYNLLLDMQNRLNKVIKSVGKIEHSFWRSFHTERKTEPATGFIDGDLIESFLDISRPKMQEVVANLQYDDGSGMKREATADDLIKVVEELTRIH
T2 sequence (Q9BXF3 434-538 limits assumed): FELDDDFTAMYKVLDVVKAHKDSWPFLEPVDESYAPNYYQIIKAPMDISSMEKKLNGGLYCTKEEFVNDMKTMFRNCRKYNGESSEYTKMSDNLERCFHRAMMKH
T7 sequence (Q9BXF3 434-538 limits assumed): as above
T7 sequence (Q96SW2 40-442 limits assumed): as the sequence (Q96SW2 40-442 limits assumed) above
T7 sequence (Q16531 whole entry partner): as the sequence (Q16531 whole entry partner) above
T5 sequence (Q16531 whole entry, the tested form may be a part): as the sequence (Q16531 whole entry partner) above
T5 sequence (Q96SW2 whole entry, the tested form may be a part): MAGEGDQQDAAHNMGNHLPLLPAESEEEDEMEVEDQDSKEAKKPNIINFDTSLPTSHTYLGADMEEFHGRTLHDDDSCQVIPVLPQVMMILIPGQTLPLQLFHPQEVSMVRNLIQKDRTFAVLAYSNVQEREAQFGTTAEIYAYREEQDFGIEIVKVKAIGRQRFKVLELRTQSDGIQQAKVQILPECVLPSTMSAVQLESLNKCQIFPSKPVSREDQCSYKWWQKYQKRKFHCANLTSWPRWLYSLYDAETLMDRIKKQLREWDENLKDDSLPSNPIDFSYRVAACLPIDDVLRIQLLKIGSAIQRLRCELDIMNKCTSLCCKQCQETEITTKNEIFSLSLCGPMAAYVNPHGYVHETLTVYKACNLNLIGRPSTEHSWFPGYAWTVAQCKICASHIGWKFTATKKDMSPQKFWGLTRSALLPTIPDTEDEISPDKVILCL
T8 sequence (Q9H8M2 whole entry, the tested form may be a part): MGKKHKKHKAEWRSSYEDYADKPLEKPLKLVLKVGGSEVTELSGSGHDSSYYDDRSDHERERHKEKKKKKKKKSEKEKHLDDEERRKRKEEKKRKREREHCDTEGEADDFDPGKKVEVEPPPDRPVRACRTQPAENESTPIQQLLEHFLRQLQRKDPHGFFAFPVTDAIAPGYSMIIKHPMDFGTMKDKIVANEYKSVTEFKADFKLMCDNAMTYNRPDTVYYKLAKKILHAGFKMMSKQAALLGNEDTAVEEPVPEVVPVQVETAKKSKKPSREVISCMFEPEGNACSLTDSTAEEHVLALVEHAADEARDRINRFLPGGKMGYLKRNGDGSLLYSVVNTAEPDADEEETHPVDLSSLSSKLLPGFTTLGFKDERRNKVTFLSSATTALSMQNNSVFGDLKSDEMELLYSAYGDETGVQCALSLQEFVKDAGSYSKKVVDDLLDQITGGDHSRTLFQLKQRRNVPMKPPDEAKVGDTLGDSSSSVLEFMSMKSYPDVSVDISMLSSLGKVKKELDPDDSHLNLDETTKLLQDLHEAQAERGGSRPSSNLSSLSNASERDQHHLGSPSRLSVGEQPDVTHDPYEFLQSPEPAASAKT
T8 sequence (Q96SW2 whole entry, the tested form may be a part): as the sequence (Q96SW2 whole entry, the tested form may be a part) above
T8 sequence (Q16531 whole entry partner, the tested form may be a part): as the sequence (Q16531 whole entry partner) above
T4 sequence (Q96SW2 40-442 limits assumed, one chain of several): as the sequence (Q96SW2 40-442 limits assumed) above
T4 sequence (Q16531 whole entry partner, one chain of several): as the sequence (Q16531 whole entry partner) above

SMILES	IC50 (BRD9 bromodomain)	IC50 (CECR2 bromodomain)	IC50 (BRD9 bromodomain; [7])	IC50 (CECR2 bromodomain; [8])	IC50 (BPTF bromodomain)	Ternary complex formation with BRD9 (AlphaScreen signal amplitude) [1]	BRET ratio, fold increase over DMSO (in-cell ternary complex formation) [2]	Ternary complex formation with PCAF (AlphaScreen signal amplitude) [3]	Ternary complex formation with CECR2 (AlphaScreen signal amplitude) [4]	Ternary complex formation with C-terminal Nluc/BPTF-BD fusion construct [2]	Ternary complex formation with N-terminal Nluc/BPTF-BD fusion construct [2]	Degradation of the Nluc-BRD9-FL construct [5]	BRET ratio, fold over DMSO control (in-cell ternary complex formation) [6]
Cn1ncc(Nc2ccc3c(c2)CCNC3)c(Cl)c1=O [Compound 1]	556 nM	1670 nM	–	–	–	–	–	–	–	–	–	–	–
Cn1ncc(Nc2ccc3c(c2)CNCC3)c(Cl)c1=O [Compound 2]	–	–	300 nM	1300 nM	–	–	–	–	–	–	–	–	–
Cn1ncc(Nc2ccc3c(c2)CCN(CCCCCCNC(=O)COc2cccc4c2C(=O)N(C2CCC(=O)NC2=O)C4=O)C3)c(Cl)c1=O (stereo not drawn) [Compound 3]	–	–	21 nM	53 nM	24 ± 9 nM	drop in signal	3.5 fold	drop in signal	drop in signal	–	–	–	–
Cn1ncc(Nc2ccc3c(c2)CN(CCCCCCNC(=O)COc2cccc4c2C(=O)N(C2CCC(=O)NC2=O)C4=O)CC3)c(Cl)c1=O (stereo not drawn) [Compound 4, N-(6-(7-((5-chloro-1-methyl-6-oxo-1,6-dihydropyridazin-4-yl)amino)-3,4-dihydroisoquinolin-2(1H)-yl)hexyl)-2-((2-(2,6-dioxopiperidin-3-yl)-1,3-dioxoisoindolin-4-yl)oxy)acetamide]	–	–	98 nM	485 nM	158 ± 55 nM	promiscuous	3.2 fold	promiscuous	promiscuous	showed ternary complex formation	did not	caused degradation of full-length BRD9, comparable to the dBRD9 control	~2 fold
Cn1ncc(Nc2ccc3c(c2)CCN(CCOCCOCCNC(=O)COc2cccc4c2C(=O)N(C2CCC(=O)NC2=O)C4=O)C3)c(Cl)c1=O (stereo not drawn) [Compound 5, N-(2-(2-(2-(6-((5-chloro-1-methyl-6-oxo-1,6-dihydropyridazin-4-yl)amino)-3,4-dihydroisoquinolin-2(1H)-yl)ethoxy)ethoxy)ethyl)-2-((2-(2,6-dioxopiperidin-3-yl)-1,3-dioxoisoindolin-4-yl)oxy)acetamide]	–	–	63 nM	225 nM	70 ± 23 nM	–	2.3 fold	less stable ternary complexes	less stable ternary complexes	showed ternary complex formation	did not	caused degradation of full-length BRD9, comparable to the dBRD9 control	–
Cn1ncc(Nc2ccc3c(c2)CN(CCOCCOCCNC(=O)COc2cccc4c2C(=O)N(C2CCC(=O)NC2=O)C4=O)CC3)c(Cl)c1=O (stereo not drawn) [Compound 6, N-(2-(2-(2-(7-((5-chloro-1-methyl-6-oxo-1,6-dihydropyridazin-4-yl)amino)-3,4-dihydroisoquinolin-2(1H)-yl)ethoxy)ethoxy)ethyl)-2-((2-(2,6-dioxopiperidin-3-yl)-1,3-dioxoisoindolin-4-yl)oxy)acetamide]	–	–	18 nM	1460 nM	121 ± 38 nM	–	1.6 fold	less stable ternary complexes	less stable ternary complexes	–	–	–	–
CN(C)CCCOc1ccc(-c2cc(NCCCn3cccn3)nc(S(C)(=O)=O)n2)cc1 [Compound 7, TP-238, reference compound]	–	–	–	33 nM	430 nM	–	–	–	–	–	–	–	–
